The text below walks through data of ChEMBL document CHEMBL3580535, “The biological characteristics of a novel camptothecin-artesunate conjugate” (Bioorg Med Chem Lett, 2015).

A short description of series [1]: Half life in PBS solution at pH 7.4. It counts as ADME.
Series [2] in a line: Half life in mouse plasma. It is filed as ADME, cell-free.
Series [3] deals with MCF7. As to the kind of experiment: Cytotoxicity against human MCF7 cells assessed as inhibition of cell viability after 48 hrs by MTT assay. It counts as functional, cell-based.
The test system of a further series is SMMC-7721. The series is described as follows: Cytotoxicity against human SMMC7721 cells assessed as inhibition of cell viability after 48 hrs by MTT assay. It counts as functional, cell-based.
For series [4], the system named is Mus musculus. The series is described as follows: Toxicity in mouse assessed as body weight loss at 1.72 mmol, ip. The settings on record: in vivo. It counts as organism-based.
The subject of series [5] is Mus musculus. As to the kind of experiment: Toxicity in mouse assessed as animal death at 0.43 to 1.72 mmol, ip. It is filed as organism-based. The settings on record: in vivo.
The subject of series [6] is Mus musculus. As to the kind of experiment: Toxicity in BALB/c nude mouse assessed as body weight at 0.023 mmol/kg, ip administered every 2 days for 3 times measured on day 6 (reference value: 17.5 to 17.9 gms). It counts as organism-based. The settings on record: in vivo.
In series [7] the test system is Mus musculus. The series is described as follows: Toxicity in BALB/c nude mouse assessed as animal death at 0.023 mmol/kg, ip administered every 2 days for 3 times measured on day 6. It counts as organism-based. The note with it: in vivo, 48 h.
In series [8] the test system is MCF7. The series is described as follows: Antitumor activity against human MCF7 cells xenografted in BALB/c nude mouse assessed as decrease in tumor volume at 0.023 mmol/kg, ip administered every 2 days for 3 times measured after day 6. It is filed as functional.
Series [9] addresses Serotransferrin (Homo sapiens) (UniProt P02787). As to the kind of experiment: Binding affinity to transferrin (unknown origin) assessed as Stem-Volmer quenching constant at 310K by fluorescence spectroscopy.
The target is the same in series [10]. The series is described as follows: Binding affinity to transferrin (unknown origin) assessed as Stem-Volmer quenching constant at 298K by fluorescence spectroscopy.
Series [11] deals with T1, Albumin (Bos taurus, UniProt P02769). As to the kind of experiment: Binding affinity to bovine serum albumin assessed as Stem-Volmer quenching constant at 310K by fluorescence spectroscopy. It is filed as ADME. The note with it: cattle, isolated protein.
The target in series [12] is T1, Albumin. As to the kind of experiment: Binding affinity to bovine serum albumin assessed as Stem-Volmer quenching constant at 298K by fluorescence spectroscopy. It is filed as ADME. The settings on record: cattle, isolated protein.
Series [13] deals with T1, Albumin. As to the kind of experiment: Binding affinity to bovine serum albumin assessed as quenching constant at 310K by fluorescence spectroscopy. It counts as ADME. The note with it: cattle, isolated protein.
Series [14] has as its target T1, Albumin. The series is described as follows: Binding affinity to bovine serum albumin assessed as quenching constant at 298K by fluorescence spectroscopy. It counts as ADME. The settings on record: cattle, isolated protein.
Series [15] deals with Serotransferrin (Homo sapiens) (UniProt P02787). As to the kind of experiment: Effect on transferrin (unknown origin) conformation at 4 to 20 uM by synchronous fluorescence spectroscopy.
In series [16] the test system is Mus musculus. The series is described as follows: Toxicity in mouse assessed as body weight loss at 0.43 mmol, ip. It is filed as organism-based. The note with it: in vivo.
Series [17] relates to Mus musculus. As to the kind of experiment: Toxicity in mouse assessed as animal death at 0.43 mmol, ip. It is filed as organism-based. The settings on record: in vivo.

Each structure is given as a SMILES string. Calls of active or inactive are those of the source. The rule behind the calls is not given here.

T1 sequence (P02769 whole entry): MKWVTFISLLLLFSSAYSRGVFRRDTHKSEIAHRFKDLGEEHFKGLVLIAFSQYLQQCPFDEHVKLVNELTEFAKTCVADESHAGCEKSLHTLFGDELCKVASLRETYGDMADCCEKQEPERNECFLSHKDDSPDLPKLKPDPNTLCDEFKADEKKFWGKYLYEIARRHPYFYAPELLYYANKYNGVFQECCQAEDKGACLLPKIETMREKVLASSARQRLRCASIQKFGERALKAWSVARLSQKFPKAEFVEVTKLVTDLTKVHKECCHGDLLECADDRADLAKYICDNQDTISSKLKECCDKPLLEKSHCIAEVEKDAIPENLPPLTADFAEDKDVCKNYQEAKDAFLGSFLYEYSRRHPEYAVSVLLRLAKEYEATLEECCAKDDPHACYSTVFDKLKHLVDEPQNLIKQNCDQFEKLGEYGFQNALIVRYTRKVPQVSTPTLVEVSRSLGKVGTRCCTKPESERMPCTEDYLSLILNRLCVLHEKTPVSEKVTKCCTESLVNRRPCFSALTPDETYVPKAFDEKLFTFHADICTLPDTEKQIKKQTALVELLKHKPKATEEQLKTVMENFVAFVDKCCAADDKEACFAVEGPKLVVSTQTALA
Sequence of Serotransferrin (Homo sapiens) (P02787 whole entry): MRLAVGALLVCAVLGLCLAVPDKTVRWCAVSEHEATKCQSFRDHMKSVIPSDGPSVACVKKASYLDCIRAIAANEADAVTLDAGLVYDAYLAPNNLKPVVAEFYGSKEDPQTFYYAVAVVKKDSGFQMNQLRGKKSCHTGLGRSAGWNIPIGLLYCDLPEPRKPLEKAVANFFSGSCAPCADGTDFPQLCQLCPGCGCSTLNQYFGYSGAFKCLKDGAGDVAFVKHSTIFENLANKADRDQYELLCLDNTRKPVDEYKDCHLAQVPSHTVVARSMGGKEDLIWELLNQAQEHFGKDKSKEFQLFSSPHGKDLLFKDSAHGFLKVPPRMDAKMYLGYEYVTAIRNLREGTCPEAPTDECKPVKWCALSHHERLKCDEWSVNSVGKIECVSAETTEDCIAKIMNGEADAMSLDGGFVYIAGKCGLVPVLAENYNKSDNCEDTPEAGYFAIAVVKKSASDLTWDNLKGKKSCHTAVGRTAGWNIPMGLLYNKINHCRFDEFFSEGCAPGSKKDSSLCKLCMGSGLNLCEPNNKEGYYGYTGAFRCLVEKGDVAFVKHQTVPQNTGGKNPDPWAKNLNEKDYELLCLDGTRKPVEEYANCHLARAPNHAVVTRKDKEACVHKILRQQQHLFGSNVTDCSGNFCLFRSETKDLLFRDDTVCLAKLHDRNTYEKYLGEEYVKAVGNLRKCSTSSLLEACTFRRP

`CC[C@@]1(OC(=O)CCC(=O)O[C@@H]2O[C@@H]3O[C@@]4(C)CC[C@H]5[C@H](C)CC[C@@H]([C@H]2C)[C@@]35OO4)C(=O)OCc2c1cc1n(c2=O)Cc2cc3c(CN(C)C)c(O)ccc3nc2-1`: the half-life is 15 h in series [1] and 4 h in series [2]. The inhibition entry in the series with MCF7 [3] and in the series on SMMC-7721 was “Dose-dependent effect” each time. The Activity result was “Toxic” in the series with Mus musculus [4], “Non-toxic” in the series on Mus musculus [5], 15.5 g in the series on Mus musculus [6] and “Non-toxic” in the series on Mus musculus [7]. For the same compound, the inhibition in vivo at 23 µmol/kg in the series on MCF7 [8] stood at 50.2%. The KSV was determined as 2.22 ×10⁴ L/mol in series [9], 2.36 ×10⁴ L/mol in series [10], 1.03 ×10⁴ L/mol at Albumin [11] and 2.27 ×10⁴ L/mol on Albumin [12]. For the same compound, the figures for the Kq at Albumin [13] and on Albumin [14] were 1.03 ×10¹² L/mol/s and 2.27 ×10¹² L/mol/s, respectively. Besides, in series [15], the outcome was inactive.
Consider `C[C@H]1[C@H](OC(=O)CCC(=O)O)O[C@@H]2O[C@@]3(C)CC[C@H]4[C@H](C)CC[C@@H]1[C@@]24OO3` [ARTESUNATE], for which the inhibition result in the series with MCF7 [3] and in the series on SMMC-7721 was “Active” throughout. Further, the Activity result with Mus musculus [16] is reported as “Toxic”; in the series on Mus musculus [6], 16.1 g; with Mus musculus [7], “Non-toxic”.
As to `CC[C@@]1(O)C(=O)OCc2c1cc1n(c2=O)Cc2cc3ccccc3nc2-1` [CAMPTOTHECIN], the inhibition result in the series with MCF7 [3] and in the series on SMMC-7721 was “Active” each time. Also, the Activity entry in the series with Mus musculus [16] was “Toxic”; in the series on Mus musculus [17], “Toxic”; with Mus musculus [6], 11.3 g; in the series with Mus musculus [7], “Toxic”. In addition, in the series with MCF7 [8], the inhibition in vivo at 23 µmol/kg was determined as 45.3%. Further, the KSV in series [9] turned out to be 2.62 ×10⁴ L/mol; in [10] it was 4.35 ×10⁴ L/mol; at Albumin [11] it was 3.345 ×10⁴ L/mol; at Albumin [12] it was 3.626 ×10⁴ L/mol. For the same compound, the Kq was found to be 3.345 ×10¹² L/mol/s at Albumin [13] and 3.626 ×10¹² L/mol/s on Albumin [14]. The outcome in series [15] was inactive.
As for `CC[C@@]1(O)C(=O)OCc2c1cc1n(c2=O)Cc2cc3c(CN(C)C)c(O)ccc3nc2-1` [TOPOTECAN], the values for the Activity with Mus musculus [6] and in the series with Mus musculus [7] were 13.6 g and “Toxic”, respectively. Also, the inhibition in vivo at 23 µmol/kg in the series with MCF7 [8] amounted to 70.2%.
